Measurements taken from patent US20120052122A1, “Treatment Of Chronic Obstructive Pulmonary Disease With Phosphodiesterase-4 Inhibitor” (Nycomed GmbH, priority 2010, published 2012).

Key:
[1] = human, in vivo
[2] = test system: CYP 1A2, 2A6, 2B6, 2C8, 2C9, 2C19, 2D6, 2E1, 3A4/5, or 4A9/11; assay: CYP inhibition in human liver microsomes; settings: therapeutic plasma concentrations

O=C(Nc1c(Cl)c[n+]([O-])cc1Cl)c1ccc(OC(F)F)c(OCC2CC2)c1 [roflumilast N-oxide]
Absorption or pharmacokinetics on co-administration with an antacid [1]: did not alter | Linearity of pharmacokinetics (Human pharmacokinetics; 250 mcg to 1,000 mcg): dose-proportional | Time of maximum plasma concentrations after dosing (Human pharmacokinetics; fasted state): about eight | Cmax (Human pharmacokinetics; in vivo): 8.5 ng/mL | Plasma AUC (Human pharmacokinetics; in vivo): 315 ugxh/L | Time to steady state plasma concentrations (Human pharmacokinetics; once daily dosing): ~6 days | Median plasma effective half-life (Human pharmacokinetics; oral dose): ~30 h | Inhibition of CYP 1A2, 2A6, 2B6, 2C8, 2C9, 2C19, 2D6, 2E1, 3A4/5, or 4A9/11 [2]: do not inhibit
